Source: the kinase profiling compilation of Christmann-Franck et al. (2016)
Where “and” joins values, the source holds several entries; their conditions need not be identical. Equal entries are not always repeated. Blank lines part the entries; values can stand above or below the molecule they belong to.

How the values were obtained:
Experiment in all cases: Caliper, Mobility shift assay off-chip
ALK (human) = ALK (human) (UniProt Q9UM73)
ALK NPM1 (human) = ALK NPM1 (human) (UniProt P06748+Q9UM73)
BMX (human) = BMX (human) (UniProt P51813)
CDK3 (human) = CDK3 (human) (UniProt Q00526)
CDK7 (human) = CDK7 (human) (UniProt P50613)
CHUK (human) = CHUK (human) (UniProt O15111)
CSF1R (human) = CSF1R (human) (UniProt P07333)
EPHA6 (human) = EPHA6 (human) (UniProt Q9UF33)
FGFR4 (human) = FGFR4 (human) (UniProt P22455)
FLT1 (human) = FLT1 (human) (UniProt P17948)
GSK3B (human) = GSK3B (human) (UniProt P49841)
INSRR (human) = INSRR (human) (UniProt P14616)
JAK2 JH1 JH2 (human) = JAK2 JH1 JH2 (human) (UniProt O60674)
MAPK10 (human) = MAPK10 (human) (UniProt P53779)
MAPK14 (human) = MAPK14 (human) (UniProt Q16539)
MAPKAPK2 (human) = MAPKAPK2 (human) (UniProt P49137)
MELK (human) = MELK (human) (UniProt Q14680)
NUAK2 (human) = NUAK2 (human) (UniProt Q9H093)
PDGFRB (human) = PDGFRB (human) (UniProt P09619)
PHKG2 (human) = PHKG2 (human) (UniProt P15735)
PRKCB1 (human) = PRKCB1 (human) (UniProt P05771)
PRKCG (human) = PRKCG (human) (UniProt P05129)
PRKCQ (human) = PRKCQ (human) (UniProt Q04759)
PRKD1 (human) = PRKD1 (human) (UniProt Q15139)
RET (human) = RET (human) (UniProt P07949)
RPS6KA4 KD1 KD2 (human) = RPS6KA4 KD1 KD2 (human) (UniProt O75676)
SPHK2 (human) = SPHK2 (human) (UniProt Q9NRA0)
SRPK2 (human) = SRPK2 (human) (UniProt P78362)
STK38L (human) = STK38L (human) (UniProt Q9Y2H1)
TXK (human) = TXK (human) (UniProt P42681)
WNK3 (human) = WNK3 (human) (UniProt Q9BYP7)
ZAP70 (human) = ZAP70 (human) (UniProt P43403)
CDK5 (human) = CDK5 (human) (UniProt Q00535)

Sequence of PRKCB1 (human) (P05771 whole entry, looked up): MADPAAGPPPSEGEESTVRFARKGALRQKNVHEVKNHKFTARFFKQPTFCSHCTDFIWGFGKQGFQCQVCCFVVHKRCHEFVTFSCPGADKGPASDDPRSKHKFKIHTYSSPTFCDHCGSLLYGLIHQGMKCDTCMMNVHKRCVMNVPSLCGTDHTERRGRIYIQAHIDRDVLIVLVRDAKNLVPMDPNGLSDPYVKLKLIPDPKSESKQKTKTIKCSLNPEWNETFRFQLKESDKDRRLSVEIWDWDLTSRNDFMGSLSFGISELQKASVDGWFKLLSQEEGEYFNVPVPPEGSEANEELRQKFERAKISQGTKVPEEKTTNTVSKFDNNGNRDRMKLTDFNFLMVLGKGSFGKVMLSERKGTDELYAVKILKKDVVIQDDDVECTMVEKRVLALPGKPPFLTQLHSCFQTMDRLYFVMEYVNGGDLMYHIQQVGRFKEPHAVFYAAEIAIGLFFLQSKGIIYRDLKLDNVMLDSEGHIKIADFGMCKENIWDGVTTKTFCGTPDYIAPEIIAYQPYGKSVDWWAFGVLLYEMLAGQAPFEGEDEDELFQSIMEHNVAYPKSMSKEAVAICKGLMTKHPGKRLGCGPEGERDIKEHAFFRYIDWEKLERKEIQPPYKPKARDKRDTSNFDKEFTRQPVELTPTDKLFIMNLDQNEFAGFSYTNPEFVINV
Sequence of FGFR4 (human) (P22455 whole entry, looked up): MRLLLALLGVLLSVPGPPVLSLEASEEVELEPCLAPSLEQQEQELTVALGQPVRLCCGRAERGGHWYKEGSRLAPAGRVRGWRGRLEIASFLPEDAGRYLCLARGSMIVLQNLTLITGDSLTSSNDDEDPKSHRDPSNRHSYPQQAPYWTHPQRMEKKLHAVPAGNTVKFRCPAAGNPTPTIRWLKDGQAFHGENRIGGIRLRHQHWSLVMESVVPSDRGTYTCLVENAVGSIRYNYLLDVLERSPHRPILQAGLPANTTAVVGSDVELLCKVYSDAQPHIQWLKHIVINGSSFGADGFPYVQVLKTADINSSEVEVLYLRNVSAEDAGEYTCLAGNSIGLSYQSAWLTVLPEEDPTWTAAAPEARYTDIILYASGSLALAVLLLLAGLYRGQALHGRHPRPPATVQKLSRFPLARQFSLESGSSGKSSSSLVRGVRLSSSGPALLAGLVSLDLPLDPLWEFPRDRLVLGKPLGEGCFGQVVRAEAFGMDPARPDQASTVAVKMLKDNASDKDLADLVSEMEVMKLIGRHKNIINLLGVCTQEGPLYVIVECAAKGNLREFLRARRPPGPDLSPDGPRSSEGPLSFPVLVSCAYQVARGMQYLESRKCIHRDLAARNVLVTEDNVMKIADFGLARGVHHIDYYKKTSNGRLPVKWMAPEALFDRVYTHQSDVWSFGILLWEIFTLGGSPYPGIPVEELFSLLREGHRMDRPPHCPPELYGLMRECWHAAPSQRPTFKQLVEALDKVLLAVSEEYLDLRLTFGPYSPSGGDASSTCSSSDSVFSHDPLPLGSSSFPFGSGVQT
Sequence of TXK (human) (P42681 whole entry, looked up): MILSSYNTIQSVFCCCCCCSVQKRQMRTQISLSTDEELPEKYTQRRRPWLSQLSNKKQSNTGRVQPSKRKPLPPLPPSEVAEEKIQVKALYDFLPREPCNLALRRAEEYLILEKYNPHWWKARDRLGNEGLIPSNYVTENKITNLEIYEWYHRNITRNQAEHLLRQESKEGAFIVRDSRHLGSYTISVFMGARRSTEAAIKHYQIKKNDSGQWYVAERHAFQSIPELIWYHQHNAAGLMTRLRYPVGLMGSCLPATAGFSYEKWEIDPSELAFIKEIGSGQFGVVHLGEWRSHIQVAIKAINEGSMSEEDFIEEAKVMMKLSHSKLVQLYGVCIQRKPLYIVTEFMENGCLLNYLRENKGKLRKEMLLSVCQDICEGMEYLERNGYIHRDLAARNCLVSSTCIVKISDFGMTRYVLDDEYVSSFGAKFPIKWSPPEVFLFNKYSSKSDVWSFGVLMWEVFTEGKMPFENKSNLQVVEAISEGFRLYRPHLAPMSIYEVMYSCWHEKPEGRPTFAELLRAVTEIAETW
Sequence of SRPK2 (human) (P78362 whole entry, looked up): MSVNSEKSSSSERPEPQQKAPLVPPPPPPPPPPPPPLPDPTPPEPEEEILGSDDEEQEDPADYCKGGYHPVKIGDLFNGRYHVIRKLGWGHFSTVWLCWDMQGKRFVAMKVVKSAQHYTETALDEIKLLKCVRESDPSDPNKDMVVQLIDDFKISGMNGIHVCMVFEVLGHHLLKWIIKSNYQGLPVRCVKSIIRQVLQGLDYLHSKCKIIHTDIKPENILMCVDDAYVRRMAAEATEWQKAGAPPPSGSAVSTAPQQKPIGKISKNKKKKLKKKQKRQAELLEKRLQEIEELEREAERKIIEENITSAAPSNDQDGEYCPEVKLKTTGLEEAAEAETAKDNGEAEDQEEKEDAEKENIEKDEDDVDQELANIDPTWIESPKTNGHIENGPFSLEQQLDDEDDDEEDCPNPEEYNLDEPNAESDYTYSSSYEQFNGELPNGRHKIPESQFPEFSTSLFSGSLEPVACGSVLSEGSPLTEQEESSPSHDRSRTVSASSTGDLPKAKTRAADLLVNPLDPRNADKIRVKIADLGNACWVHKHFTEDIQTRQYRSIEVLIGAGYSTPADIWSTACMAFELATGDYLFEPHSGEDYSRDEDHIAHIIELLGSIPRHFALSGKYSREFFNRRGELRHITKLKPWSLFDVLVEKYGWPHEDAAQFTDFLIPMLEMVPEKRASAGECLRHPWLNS
Sequence of MAPKAPK2 (human) (P49137 whole entry, looked up): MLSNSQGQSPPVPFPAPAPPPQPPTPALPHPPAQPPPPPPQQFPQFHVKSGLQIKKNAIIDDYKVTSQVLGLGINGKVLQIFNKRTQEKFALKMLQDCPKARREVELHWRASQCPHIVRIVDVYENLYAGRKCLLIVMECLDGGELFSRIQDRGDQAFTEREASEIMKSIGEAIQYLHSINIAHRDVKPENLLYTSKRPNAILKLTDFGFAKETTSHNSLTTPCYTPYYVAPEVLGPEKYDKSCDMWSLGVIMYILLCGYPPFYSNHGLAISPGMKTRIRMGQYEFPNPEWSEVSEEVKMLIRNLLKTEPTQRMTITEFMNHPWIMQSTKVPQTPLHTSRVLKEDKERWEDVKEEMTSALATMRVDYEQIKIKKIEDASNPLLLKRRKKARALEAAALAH
Sequence of STK38L (human) (Q9Y2H1 whole entry, looked up): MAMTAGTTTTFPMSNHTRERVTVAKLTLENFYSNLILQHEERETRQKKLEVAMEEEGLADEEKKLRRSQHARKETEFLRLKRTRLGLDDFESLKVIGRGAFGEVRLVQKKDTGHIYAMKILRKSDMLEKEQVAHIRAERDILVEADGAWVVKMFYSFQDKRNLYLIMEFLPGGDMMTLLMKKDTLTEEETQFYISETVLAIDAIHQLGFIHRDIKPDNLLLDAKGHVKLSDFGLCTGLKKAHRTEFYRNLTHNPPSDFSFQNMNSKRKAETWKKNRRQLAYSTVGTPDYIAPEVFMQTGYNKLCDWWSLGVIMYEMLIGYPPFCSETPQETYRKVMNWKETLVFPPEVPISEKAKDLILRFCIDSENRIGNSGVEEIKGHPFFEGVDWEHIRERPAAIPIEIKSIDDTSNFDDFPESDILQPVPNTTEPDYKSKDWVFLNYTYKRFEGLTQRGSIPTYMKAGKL
Sequence of MAPK10 (human) (P53779 whole entry, looked up): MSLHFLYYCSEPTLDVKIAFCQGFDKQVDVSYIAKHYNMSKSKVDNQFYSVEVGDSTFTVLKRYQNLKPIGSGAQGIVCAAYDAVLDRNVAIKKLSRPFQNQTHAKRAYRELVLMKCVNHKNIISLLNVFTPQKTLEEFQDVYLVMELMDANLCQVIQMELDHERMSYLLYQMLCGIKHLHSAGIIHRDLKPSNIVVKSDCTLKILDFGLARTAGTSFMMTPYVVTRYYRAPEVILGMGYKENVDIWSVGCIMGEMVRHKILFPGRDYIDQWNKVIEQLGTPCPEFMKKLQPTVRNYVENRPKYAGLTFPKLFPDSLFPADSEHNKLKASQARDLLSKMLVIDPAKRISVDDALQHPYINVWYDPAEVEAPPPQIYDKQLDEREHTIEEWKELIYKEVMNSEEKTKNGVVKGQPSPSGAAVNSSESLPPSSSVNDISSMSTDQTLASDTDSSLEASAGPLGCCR
Sequence of SPHK2 (human) (Q9NRA0 whole entry, looked up): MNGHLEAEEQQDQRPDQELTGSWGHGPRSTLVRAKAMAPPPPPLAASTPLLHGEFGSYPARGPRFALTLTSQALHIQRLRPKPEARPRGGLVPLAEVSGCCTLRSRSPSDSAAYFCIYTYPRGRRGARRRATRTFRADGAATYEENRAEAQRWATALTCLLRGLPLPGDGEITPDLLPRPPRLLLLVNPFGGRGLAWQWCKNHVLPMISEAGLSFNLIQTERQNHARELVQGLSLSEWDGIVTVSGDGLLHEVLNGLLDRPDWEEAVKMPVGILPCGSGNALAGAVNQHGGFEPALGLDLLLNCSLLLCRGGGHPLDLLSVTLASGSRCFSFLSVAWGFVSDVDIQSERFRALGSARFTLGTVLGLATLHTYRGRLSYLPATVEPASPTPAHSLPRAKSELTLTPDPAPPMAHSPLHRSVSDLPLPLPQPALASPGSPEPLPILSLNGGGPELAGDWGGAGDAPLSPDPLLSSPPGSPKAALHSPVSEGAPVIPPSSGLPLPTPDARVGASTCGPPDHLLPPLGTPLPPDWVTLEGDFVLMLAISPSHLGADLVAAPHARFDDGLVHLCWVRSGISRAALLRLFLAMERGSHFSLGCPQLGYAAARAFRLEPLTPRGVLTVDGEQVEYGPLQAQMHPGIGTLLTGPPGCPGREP
Sequence of CDK3 (human) (Q00526 whole entry, looked up): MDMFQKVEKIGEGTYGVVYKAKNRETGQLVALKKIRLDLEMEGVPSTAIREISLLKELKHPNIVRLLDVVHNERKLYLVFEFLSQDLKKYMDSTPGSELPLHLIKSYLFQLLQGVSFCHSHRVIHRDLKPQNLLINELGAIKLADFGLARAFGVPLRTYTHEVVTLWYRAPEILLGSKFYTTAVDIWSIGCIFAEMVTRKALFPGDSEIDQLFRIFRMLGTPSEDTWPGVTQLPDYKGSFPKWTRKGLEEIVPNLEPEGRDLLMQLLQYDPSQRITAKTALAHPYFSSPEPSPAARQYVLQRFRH

- inhibition (ALK (human); compound 0.2 µM): 82.2%
- inhibition (ALK (human); compound 4.0 µM): 102%
- inhibition (ALK NPM1 (human); compound 0.2 µM): 76%
- inhibition (ALK NPM1 (human); compound 4.0 µM): 100%
- inhibition (BMX (human); compound 0.2 µM): -0.5%
- inhibition (BMX (human); compound 4.0 µM): 22.4%
- inhibition (CDK3 (human); compound 0.2 µM): 0.3%
- inhibition (CDK3 (human); compound 4.0 µM): 36.6%
- inhibition (CDK7 (human); compound 0.2 µM): 87.6%
- inhibition (CDK7 (human); compound 4.0 µM): 98.8%
- inhibition (CHUK (human); compound 0.2 µM): 3%
- inhibition (CHUK (human); compound 4.0 µM): 2.9%
- inhibition (CSF1R (human); compound 0.2 µM): 67.9%
- inhibition (CSF1R (human); compound 4.0 µM): 98.9%
- inhibition (EPHA6 (human); compound 0.2 µM): 43.4%
- inhibition (EPHA6 (human); compound 4.0 µM): 92.7%
- inhibition (FGFR4 (human); compound 0.2 µM): 10.3%
- inhibition (FGFR4 (human); compound 4.0 µM): 62.6%
- inhibition (FLT1 (human); compound 0.2 µM): 90.4%
- inhibition (FLT1 (human); compound 4.0 µM): 103%
- inhibition (GSK3B (human); compound 0.2 µM): 1.1%
- inhibition (GSK3B (human); compound 4.0 µM): 23.7%
- inhibition (INSRR (human); compound 0.2 µM): 75.7%
- inhibition (INSRR (human); compound 4.0 µM): 101%
- inhibition (JAK2 JH1 JH2 (human); compound 0.2 µM): 36.5%
- inhibition (JAK2 JH1 JH2 (human); compound 4.0 µM): 94.6%
- inhibition (MAPK10 (human); compound 0.2 µM): -2.3%
- inhibition (MAPK14 (human); compound 0.2 µM): -6.9%
- inhibition (MAPK14 (human); compound 4.0 µM): -20.4%
- inhibition (MAPKAPK2 (human); compound 0.2 µM): 4%
- inhibition (MAPKAPK2 (human); compound 4.0 µM): 5.5%
- inhibition (MELK (human); compound 0.2 µM): 80%
- inhibition (MELK (human); compound 4.0 µM): 99.2%
- inhibition (NUAK2 (human); compound 0.2 µM): 55.7%
- inhibition (NUAK2 (human); compound 4.0 µM): 95.3%
- inhibition (PDGFRB (human); compound 0.2 µM): 98.9%
- inhibition (PDGFRB (human); compound 4.0 µM): 102%
- inhibition (PHKG2 (human); compound 0.2 µM): 85.2%
- inhibition (PHKG2 (human); compound 4.0 µM): 99%
- inhibition (PRKCB1 (human); compound 0.2 µM): 0% and -1.3%
- inhibition (PRKCB1 (human); compound 4.0 µM): 20% and 27.2%
- inhibition (PRKCG (human); compound 0.2 µM): 0.1%
- inhibition (PRKCG (human); compound 4.0 µM): 38.9%
- inhibition (PRKCQ (human); compound 0.2 µM): 1.3%
- inhibition (PRKCQ (human); compound 4.0 µM): 31.2%
- inhibition (PRKD1 (human); compound 0.2 µM): 73.6%
- inhibition (PRKD1 (human); compound 4.0 µM): 99%
- inhibition (RET (human); compound 0.2 µM): 99.2%
- inhibition (RET (human); compound 4.0 µM): 103%
- inhibition (RPS6KA4 KD1 KD2 (human); compound 0.2 µM): 15.5%
- inhibition (RPS6KA4 KD1 KD2 (human); compound 4.0 µM): 73.7%
- inhibition (SPHK2 (human); compound 0.2 µM): -6.9%
- inhibition (SPHK2 (human); compound 4.0 µM): 4.7%
- inhibition (SRPK2 (human); compound 0.2 µM): -0.5%
- inhibition (SRPK2 (human); compound 4.0 µM): 21.1%
- inhibition (STK38L (human); compound 0.2 µM): 6.1%
- inhibition (STK38L (human); compound 4.0 µM): 32.7%
- inhibition (TXK (human); compound 0.2 µM): 6.1%
- inhibition (TXK (human); compound 4.0 µM): 43%
- inhibition (WNK3 (human); compound 0.2 µM): 1.8%
- inhibition (WNK3 (human); compound 4.0 µM): 2.4%
- inhibition (ZAP70 (human); compound 0.2 µM): 6.8%
- inhibition (ZAP70 (human); compound 4.0 µM): 37.7%
SMILES: CCN(CC)CCNC(=O)c1c(C)[nH]c(/C=C2\C(=O)Nc3ccc(F)cc32)c1C

- inhibition (ALK (human); compound 0.02 µM): -3.3%
- inhibition (ALK (human); compound 0.2 µM): 5.8%
- inhibition (ALK NPM1 (human); compound 0.02 µM): -6%
- inhibition (ALK NPM1 (human); compound 0.2 µM): 5%
- inhibition (BMX (human); compound 0.02 µM): 0.1%
- inhibition (BMX (human); compound 0.2 µM): 10.4%
- inhibition (CDK3 (human); compound 0.02 µM): -4.1%
- inhibition (CDK3 (human); compound 0.2 µM): -2.4%
- inhibition (CDK5 (human); compound 0.02 µM): -3.5%
- inhibition (CDK5 (human); compound 0.2 µM): -3.6%
- inhibition (CDK7 (human); compound 0.02 µM): -5.5%
- inhibition (CDK7 (human); compound 0.2 µM): -7%
- inhibition (CHUK (human); compound 0.02 µM): 3.4%
- inhibition (CHUK (human); compound 0.2 µM): 1%
- inhibition (EPHA6 (human); compound 0.02 µM): 16.5%
- inhibition (EPHA6 (human); compound 0.2 µM): 77.8%
- inhibition (FGFR4 (human); compound 0.02 µM): -7.4%
- inhibition (FGFR4 (human); compound 0.2 µM): 8.8%
- inhibition (FLT1 (human); compound 0.02 µM): 49.3%
- inhibition (FLT1 (human); compound 0.2 µM): 99.6%
- inhibition (GSK3B (human); compound 0.02 µM): -6.7%
- inhibition (GSK3B (human); compound 0.2 µM): 2.9%
- inhibition (INSRR (human); compound 0.02 µM): -6.9%
- inhibition (INSRR (human); compound 0.2 µM): -3%
- inhibition (JAK2 JH1 JH2 (human); compound 0.02 µM): -3.6%
- inhibition (JAK2 JH1 JH2 (human); compound 0.2 µM): 8.1%
- inhibition (MAPK10 (human); compound 0.02 µM): -6.5%
- inhibition (MAPK10 (human); compound 0.2 µM): -4.6%
- inhibition (MAPK14 (human); compound 0.2 µM): 63.8%
- inhibition (MAPKAPK2 (human); compound 0.02 µM): -7.2%
- inhibition (MAPKAPK2 (human); compound 0.2 µM): -2%
- inhibition (MELK (human); compound 0.02 µM): -4.3%
- inhibition (MELK (human); compound 0.2 µM): -1.1%
- inhibition (NUAK2 (human); compound 0.02 µM): -6%
- inhibition (NUAK2 (human); compound 0.2 µM): 2.5%
- inhibition (PHKG2 (human); compound 0.02 µM): -3.1%
- inhibition (PHKG2 (human); compound 0.2 µM): -2.3%
- inhibition (PRKCB1 (human); compound 0.02 µM): -0.2% and -0.6%
- inhibition (PRKCB1 (human); compound 0.2 µM): 22% and 17.2%
- inhibition (PRKCG (human); compound 0.02 µM): -2.1%
- inhibition (PRKCG (human); compound 0.2 µM): 16.8%
- inhibition (PRKCQ (human); compound 0.02 µM): 1.3%
- inhibition (PRKCQ (human); compound 0.2 µM): 14.1%
- inhibition (PRKD1 (human); compound 0.02 µM): -1.1%
- inhibition (PRKD1 (human); compound 0.2 µM): 2.7%
- inhibition (RET (human); compound 0.02 µM): 79.4%
- inhibition (RET (human); compound 0.2 µM): 101%
- inhibition (RPS6KA4 KD1 KD2 (human); compound 0.02 µM): -1.1%
- inhibition (RPS6KA4 KD1 KD2 (human); compound 0.2 µM): 2.6%
- inhibition (SPHK2 (human); compound 0.02 µM): -6%
- inhibition (SPHK2 (human); compound 0.2 µM): 7.1%
- inhibition (SRPK2 (human); compound 0.02 µM): -5.7%
- inhibition (SRPK2 (human); compound 0.2 µM): -6.5%
- inhibition (STK38L (human); compound 0.02 µM): -3.6%
- inhibition (STK38L (human); compound 0.2 µM): 4.2%
- inhibition (TXK (human); compound 0.02 µM): -6.1%
- inhibition (TXK (human); compound 0.2 µM): 5.8%
- inhibition (WNK3 (human); compound 0.02 µM): -8%
- inhibition (WNK3 (human); compound 0.2 µM): 3.9%
- inhibition (ZAP70 (human); compound 0.02 µM): -17.2%
- inhibition (ZAP70 (human); compound 0.2 µM): 19.1%
SMILES: CNC(=O)c1cc(Oc2ccc(NC(=O)Nc3ccc(Cl)c(C(F)(F)F)c3)cc2)ccn1
